The source of these data is patent US6200963A, “Aryl sulfonic acids as FSH antagonists” (American Home Products Corporation, priority 2000, dated 2001).

Test [1] addresses T1, FSH receptor (Homo sapiens, UniProt P23945).
T1 sequence (P23945 18-695): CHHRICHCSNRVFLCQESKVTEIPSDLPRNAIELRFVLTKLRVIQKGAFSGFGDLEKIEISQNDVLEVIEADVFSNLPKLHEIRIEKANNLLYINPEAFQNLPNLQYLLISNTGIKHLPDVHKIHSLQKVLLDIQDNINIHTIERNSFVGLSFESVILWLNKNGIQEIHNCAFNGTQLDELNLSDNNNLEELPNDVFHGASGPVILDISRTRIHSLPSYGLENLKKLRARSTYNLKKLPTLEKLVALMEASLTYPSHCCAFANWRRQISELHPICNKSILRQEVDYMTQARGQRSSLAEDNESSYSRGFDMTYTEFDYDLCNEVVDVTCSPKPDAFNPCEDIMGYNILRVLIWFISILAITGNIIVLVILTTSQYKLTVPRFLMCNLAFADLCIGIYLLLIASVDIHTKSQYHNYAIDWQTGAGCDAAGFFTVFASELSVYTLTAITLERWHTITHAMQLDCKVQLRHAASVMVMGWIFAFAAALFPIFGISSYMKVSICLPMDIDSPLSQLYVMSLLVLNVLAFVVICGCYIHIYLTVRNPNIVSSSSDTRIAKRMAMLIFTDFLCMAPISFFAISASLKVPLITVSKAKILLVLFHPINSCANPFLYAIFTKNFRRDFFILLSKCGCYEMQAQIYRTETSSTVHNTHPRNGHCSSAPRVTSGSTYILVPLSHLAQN
The experiment in a line: FSH Receptor Radioligand Membrane Binding Assay ([125I]hFSH, CHO cell membranes). On the set-up: expressed in transfected cells; membrane homogenate. To be noted: for inhibition at 10 µM: read-out: % Inhibition at 10 μM conc.; for inhibition at 100 µM: read-out: % Inhibition at 100 μM conc. As for the experimental part:
FSH Receptor Radioligand Membrane Binding Assay
Membrane Source: Chinese hamster ovarian cells stably transfected with the human FSH receptor were cultured (Ultra CHO medium containing 1% fetal bovine serum and 200 μg/mL G418) in and harvested. Cells were collected by centrifugation and resulting cell pellets were frozen and stored at -70° C.
Membrane Receptor Preparation: Frozen cell pellets were weighed and resuspended in binding buffer to a final concentration of 30 mg wet weight/mL. Cell suspension for each pellet was homogenized using a Tempest homogenizer (setting=1; 5 strokes; VirTis, Gardiner, N.Y.). Cell homogenates were pooled and 35 mL aliquots were transferred to 50-mL polypropylene copolymer centrifuge tubes (Nalgene cat. #3110-0500). Tubes were spun at 12,000 rpm (SS34 rotor) for 12 min at 4° C. Resulting supernatant fractions were discarded and pellets were stored at -70° C. until use. On the day of the assay, 35 mL binding buffer was added to each tube (35 mL membrane suspension was sufficient for three 96-well plates). The membrane pellet was dispersed by trituration using a pipet. The resulting suspension was homogenized using a Tempest homogenizer (3 strokes at setting=1).
Receptor Binding Assay: Membrane homogenate (100 μl) was added to each well of a 96-well microtiter plate (Falcon # 3077). All reactions were tested in triplicate. Test compound solutions (50 μl) were added to the designated wells. Total bound counts were determined by adding 50 μl binding buffer containing 4% DMSO to the designated wells. […] Plates were pre-incubated for 15 min at room temperature on shaking platform (setting=3). After preincubation [^125 I]FSH (50 μl) was added to each well and plates were incubated for 2 h at room temperature on shaking platform (setting=3). The reaction was terminated by transfer of the membrane preparation to glass fiber filters (Blue Mat #11740; 102×256 mm; Skatron Instruments, Sterling, Va.) that had been pretreated with 1% BSA in wash buffer for at least 30 min, but not longer than 1 h using a 96-well microtiter vacuum harvester (Skatron Instruments). The membrane preparation was washed with 5 cycles of ice-cold wash buffer (200 μl/well/cycle) followed by a pulse wash of 3 cycles (100 μl/well/cycle). The total wash volume per well was 1.3 mL. The filters were dried by a 10 sec aspiration. Disks corresponding to each well of the microtiter plate were punched out of the filter mat into 12×75 mm polypropylene tubes. The radioactivity present on each of the disks was measured using a gamma counter.
An FSH dose response curve (0.001, 0.01, 0.1, 1, 10, and 100 nM) was generated for each binding assay to monitor assay to assay variability.
FSH Receptor Radioligand Membrane Binding Assay Buffers and Reagents
Binding Buffer (pH 7.2): 10 mM Trizma®-HCl (Sigma)
Binding buffer was prepared in 1 l volumes containing Trizma-HCl, MgCl2, CaCl2 and sodium azide, the pH was adjusted to 7.2 with NaOH, and stored at 4° C. until use. BSA was weighed out on the day of the assay and added to the amount of buffer required for the assay (usually 150 mL). The protease inhibitors were prepared as 1 mg/mL stocks (aprotinin, leupeptin, and phosphoramidon were prepared in binding buffer without BSA and protease inhibitors; pepstatin and PMSF were prepared in methanol), stored in 1 mL aliquots at -70° C., and added to the binding buffer on the day of the assay.
Wash Buffer (pH 7.2): 50 mM Trizma®-HCl (Sigma)
Wash buffer was prepared containing Trizma-HCl, MgCl2 and EDTA, the pH was adjusted to 7.2 with NaOH, and stored at 4° C.
Filter Soak Buffer (pH 7.2): Wash Buffer
BSA was weighed out on the day of the assay and added to 300 mL of wash buffer. The filter soak buffer was used for two assays before being discarded.
A portion of the stock solution was diluted in binding buffer to a concentration of 200 pM. […]

In test [2] the target is T1, FSH receptor. Briefly: In Vitro Bio-assay of Agonists and Antagonists to the FSH Receptor (cAMP accumulation in CHO-3D2 cells). The test is classed as cell-based. On the set-up: expressed in transfected cells; host or cells: CHO-3D2 cells. The method, then:
Preparation of CHO-3D2 Cells; CHO-3D2 cells were plated into 96-well Nunc tissue culture plates at a density of 30,000 cells/well in DMEM/F12 medium (Gibco/BRL, Grand Island, N.Y.) supplemented with 5% Fetal Bovine Serum (Hyclone, Fetal Clone II), 2 mM L-glutamine and penicillin/streptomycin (100 U/mL).
The plate was split in half to test a single compound in both agonist and antagonist mode on the same plate.
For agonist mode, compounds were tested using 5 different concentrations in a dose-response paradigm using one column as a control (challenge medium alone) in agonist mode.
The 96-well format allowed for the capability to test 4 columns of compound, using one of the remaining columns for negative control (challenge medium alone) and the other remaining column for ampositive control (ED20 of FSH alone).
The doses chosen to test each compound were extrapolated from the initial screening process (receptor binding data).
Data were analyzed statistically by analysis of variance and significant differences between treatments and control determined by Dunnett's test. In antagonist mode, a Duncan's test was used.
Reference Compounds: Test compounds were compared to the effect of purified or recombinant human FSH.

The target in test [3] is T2, FSH receptor (Rattus norvegicus, UniProt P20395).
T2 sequence (P20395 18-692): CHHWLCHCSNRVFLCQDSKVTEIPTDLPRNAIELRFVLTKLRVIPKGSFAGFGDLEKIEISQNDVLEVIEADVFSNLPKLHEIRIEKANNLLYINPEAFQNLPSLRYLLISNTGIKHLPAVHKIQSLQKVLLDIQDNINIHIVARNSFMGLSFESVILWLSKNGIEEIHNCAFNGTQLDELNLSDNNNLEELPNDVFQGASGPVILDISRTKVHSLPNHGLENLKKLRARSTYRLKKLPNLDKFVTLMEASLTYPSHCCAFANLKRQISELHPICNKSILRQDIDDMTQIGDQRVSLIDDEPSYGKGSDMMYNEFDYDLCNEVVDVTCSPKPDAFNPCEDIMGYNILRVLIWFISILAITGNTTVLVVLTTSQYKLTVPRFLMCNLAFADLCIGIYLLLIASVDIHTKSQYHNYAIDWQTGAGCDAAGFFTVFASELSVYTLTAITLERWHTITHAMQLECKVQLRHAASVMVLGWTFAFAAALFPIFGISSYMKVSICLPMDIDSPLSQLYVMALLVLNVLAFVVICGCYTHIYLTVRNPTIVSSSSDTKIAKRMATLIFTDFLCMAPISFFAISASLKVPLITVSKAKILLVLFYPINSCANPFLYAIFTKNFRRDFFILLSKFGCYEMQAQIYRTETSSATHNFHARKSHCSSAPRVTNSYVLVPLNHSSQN
The experiment in a line: In Vitro Bioassay of Agonists and Antagonists to the FSH Receptor using Primary Cultures of Rat Granulosa (estradiol secretion). The test is classed as cell-based. On the set-up: immature female Sprague-Dawley rats (Charles River Laboratories, Wilmington, Mass.) were used as donors for ovarian granulosa cells; endogenous in cells; host or cells: primary ovarian granulosa cells of immature female Sprague-Dawley rats. To be noted: antagonist mode; ED50 of FSH (0.5 ng/mL), rat granulosa cells, 72 h; read-out: IC50 (half-maximal inhibition of FSH-induced estradiol secretion).
Description: The concentration of vehicle was maintained constant throughout all dilutions.
Preparation of Granulosa Cells: Twenty-four day-old immature female Sprague-Dawley rats (Charles River Laboratories, Wilmington, Mass.) were used as donors for ovarian granulosa cells. The animals were treated by single daily injections of 100 mg/kg diethylstilbestrol (DES) in oil over three days. On the fourth day, animals were sacrificed by CO2 asphyxiation and the ovaries were removed. Ovaries were washed three times in 50 mL of sterile HEPES-buffered saline (HBS, pH 7.4). […] After the final spin, the cells were resuspended by gentle trituration in 25 mL serum-free medium, an aliquot counted in a hemocytometer and viability estimated by trypan blue exclusion. […]
Analysis of Results: Estradiol was expressed as pg/mL. […] Data were analyzed statistically by analysis of variance with Huber weighting of log transformed data. […]

Test [4] addresses T2, FSH receptor. To be noted: literature, in words; cited from earlier work.
Test [5] deals with testosterone production. To be noted: rats administered suramin; in words; cited from earlier work.
Test [6] deals with testosterone production. To be noted: humans administered suramin; in words; cited from earlier work.
Where [7] appears, read: 10 μM, [125I]hFSH binding, CHO membranes with human FSH receptor.
[8] abbreviates: 100 μM, [125I]hFSH binding, CHO membranes with human FSH receptor.
[9] abbreviates: antagonist mode, hFSH-induced cAMP accumulation (ED20 of FSH, […]), CHO-3D2 cells, 30 min.

Structures are written as SMILES. Structures can show the parent of a compound that is named as a salt. Where two headings read alike, the source gives them in different places.

In the case of `COc1ccc(N=Nc2c(S(=O)(=O)O)cc3cc(Nc4nc(Cl)nc(N(CCC(N)=O)CCC(N)=O)n4)ccc3c2O)cc1` [Example 9, 7-{4-[Bis-(2-carbamoyl-ethyl)-amino]-6-chloro-[1,3,5]-triazin-2-ylamino)-4-hydroxy-3-(4-methoxy-phenylazo)-napthalene-2-sulfonic Acid, Sodium Salt], the “% Inhibition at 10 μM conc.” value in test [1] (10 μM, [125I]hFSH binding, CHO membranes with human FSH receptor, Sodium Salt) is listed as 66%. In addition, in test [1] (setting [7]), the inhibition at 10 µM amounted to 74%. Further, in test [1] (100 μM, [125I]hFSH binding, CHO membranes with human FSH receptor, Sodium Salt), the “% Inhibition at 100 μM conc.” value amounted to 98%. Also, the inhibition at 100 µM in test [1] (setting [8]) came to 94%. In addition, the IC50 in test [1] ([125I]hFSH binding, CHO membranes with human FSH receptor, Sodium Salt) came out at 5 µM; in test [1] ([125I]hFSH binding, CHO membranes with human FSH receptor, listed as 3, Sodium Salt), 6 µM; in test [2] (setting [9]), 1.4 µM; in test [3], 1.9 µM.
With `COc1ccc(N=Nc2c(S(=O)(=O)O)cc3cc(Nc4nc(Cl)nc(N(CCO)CCO)n4)ccc3c2O)cc1` [Example 11, 7-{4-[Bis-(2-hydroxy-ethyl)-amino]-6-chloro-[1,3,5]-triazin-2-ylamino)-4-hydroxy-3-(4-methoxy-phenylazo)-napthalene-2-sulfonic Acid, Sodium Salt], the inhibition at 10 µM in test [1] (setting [7]) stood at 29%. Further, the inhibition at 100 µM in test [1] (setting [8]) turned out to be 71%. The IC50 is 8.6 µM in test [1] ([125I]hFSH binding, CHO membranes with human FSH receptor) and 10 µM in test [2] (setting [9]).
`COc1ccc(N=Nc2c(S(=O)(=O)O)cc3cc(NC(=O)c4ccc(N(C)C)cc4)ccc3c2O)cc1` [Example 12, 7-(4-Dimethylamino-benzoylamino)-4-hydroxy-3-(4-methoxy-phenylazo)-napthalene-2-sulfonic Acid, Sodium Salt] came in with an IC50 in test [1] of 101 µM.
Molecule `COc1ccc(N=Nc2c(S(=O)(=O)O)cc3cc(NC(=O)c4cc(OC)cc(OC)c4)ccc3c2O)cc1` [Example 14, 7-(3,5-Dimethoxy-benzoylamino)-4-hydroxy-3-(4-methoxy-phenylazo)-napthalene-2-sulfonic Acid] showed an IC50 in test [1] of 81 µM. Also, the inhibition at 10 µM in test [1] (setting [7]) was found to be 14%. Besides, the inhibition at 100 µM in test [1] (setting [8]) stood at 60%.
For the molecule `COc1ccc(N=Nc2c(S(=O)(=O)O)cc3cc(NC(=O)c4ccccc4)ccc3c2O)cc1` [Example 16, 7-Benzoylamino-4-hydroxy-3-(4-methoxy-phenylazo)-napthalene-2-sulfonic Acid], the IC50 in test [1] was found to be 79 µM. Further, in test [1] (setting [7]), the inhibition at 10 µM was 11%. In addition, in test [1] (setting [8]), the inhibition at 100 µM is 76%.
Consider `COc1ccc(N=Nc2c(S(=O)(=O)O)cc3cc(NC(=O)c4c(OC)cccc4OC)ccc3c2O)cc1` [Example 18, 7-(2,6-Dimethoxy-benzoylamino)-4-hydroxy-3-(4-methoxy-phenylazo)-napthalene-2-sulfonic Acid], for which the inhibition at 10 µM in test [1] (setting [7]) came to 10%. For the same molecule, the inhibition at 100 µM in test [1] (setting [8]) came to 8%.
For the molecule `COc1ccc(N=Nc2c(S(=O)(=O)O)cc3cc(NC(=O)c4ccc(OC)c(OC)c4)ccc3c2O)cc1` [Example 19, 7-(3,4-Dimethoxy-benzoylamino)-4-hydroxy-3-(4-methoxy-phenylazo)-napthalene-2-sulfonic Acid], the IC50 in test [1] amounted to 14 µM; in test [2], 16 µM. In addition, the inhibition at 10 µM in test [1] (setting [7]) came out at 19%. The inhibition at 100 µM in test [1] (setting [8]) is 100%.
For `Cc1ccc(C(=O)Nc2ccc(S(=O)(=O)O)c3cc(S(=O)(=O)O)cc(S(=O)(=O)O)c23)cc1NC(=O)c1cccc(NC(=O)Nc2cccc(C(=O)Nc3cc(C(=O)Nc4ccc(S(=O)(=O)O)c5cc(S(=O)(=O)O)cc(S(=O)(=O)O)c45)ccc3C)c2)c1` [suramin], the “inhibition of FSH binding to its receptor” value in test [4] is “inhibit FSH binding to its receptor”. Besides, the testosterone production entry in test [5] and in test [6] was “decrease in testosterone production” throughout.
